{"source": "ChEMBL document CHEMBL1201862", "about": "“PubChem BioAssay data set” (2004)", "assay_in_all_cases": "growth of human tumour cells (NCI), 48 h", "key": {"HOP-92": {"test_system": "HOP-92"}, "HCT-116": {"test_system": "HCT-116"}, "NCI-H460": {"test_system": "NCI-H460"}, "LOX IMVI": {"test_system": "LOX IMVI"}, "RXF 393": {"test_system": "RXF 393"}, "SF-268": {"test_system": "SF-268"}, "SNB-75": {"test_system": "SNB-75"}, "CCRF-CEM": {"test_system": "CCRF-CEM"}, "HT-29": {"test_system": "HT-29"}, "CAKI-1": {"test_system": "CAKI-1"}, "TK-10": {"test_system": "TK-10"}, "U-251": {"test_system": "U-251"}, "MDA-MB-435": {"test_system": "MDA-MB-435"}, "IGROV-1": {"test_system": "IGROV-1"}, "SK-MEL-5": {"test_system": "SK-MEL-5"}, "SF-539": {"test_system": "SF-539"}, "SN12C": {"test_system": "SN12C"}, "SR": {"test_system": "SR"}, "SW-620": {"test_system": "SW-620"}, "COLO 205": {"test_system": "COLO 205"}, "MCF7": {"test_system": "MCF7"}, "NCI-H226": {"test_system": "NCI-H226"}, "OVCAR-8": {"test_system": "OVCAR-8"}, "UACC-62": {"test_system": "UACC-62"}, "ACHN": {"test_system": "ACHN"}, "SK-OV-3": {"test_system": "SK-OV-3"}, "M14": {"test_system": "M14"}, "MDA-MB-231": {"test_system": "MDA-MB-231"}, "OVCAR-4": {"test_system": "OVCAR-4"}, "MDA-N": {"test_system": "MDA-N"}, "UACC-257": {"test_system": "UACC-257"}, "HCC 2998": {"test_system": "HCC 2998"}, "DU-145": {"test_system": "DU-145"}, "BT-549": {"test_system": "BT-549"}, "PC-3": {"test_system": "PC-3"}, "Hs-578T": {"test_system": "Hs-578T"}, "KM12": {"test_system": "KM12"}, "NCI-H522": {"test_system": "NCI-H522"}, "SNB-19": {"test_system": "SNB-19"}, "NCI-H23": {"test_system": "NCI-H23"}, "RPMI-8226": {"test_system": "RPMI-8226"}, "K562": {"test_system": "K562"}, "HCT-15": {"test_system": "HCT-15"}, "EKVX": {"test_system": "EKVX"}, "SK-MEL-2": {"test_system": "SK-MEL-2"}, "A498": {"test_system": "A498"}, "SF-295": {"test_system": "SF-295"}, "Malme-3M": {"test_system": "Malme-3M"}, "HOP-62": {"test_system": "HOP-62"}, "OVCAR-3": {"test_system": "OVCAR-3"}, "A549": {"test_system": "A549"}, "SK-MEL-28": {"test_system": "SK-MEL-28"}, "786-0": {"test_system": "786-0"}, "T47D": {"test_system": "T47D"}, "NCI/ADR-RES": {"test_system": "NCI/ADR-RES"}, "OVCAR-5": {"test_system": "OVCAR-5"}}, "note": "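1) Cells in 96-well plates. 2) Compound, 48 h, 5 concentrations. 3) Linear interpolation between surrounding doses. 4) Unreached endpoint = highest concentration. GI50 is the concentration that inhibits growth by half.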 Calls of active or inactive are those of the source. Cut-off read from the data, not from the text of the source: active = GI50 up to about 1.1 µM and inactive = higher."}
{"smiles": "CNC(=O)Nc1cc2c3c(c1)CCCN3CCC2", "values": [{"measurement": "GI50", "setting": "HOP-92", "value": "> 10 µM (inactive)"}, {"measurement": "GI50", "setting": "HCT-116", "value": "> 10 µM (inactive)"}, {"measurement": "GI50", "setting": "NCI-H460", "value": "> 10 µM (inactive)"}, {"measurement": "GI50", "setting": "LOX IMVI", "value": "> 10 µM (inactive)"}, {"measurement": "GI50", "setting": "RXF 393", "value": "> 10 µM (inactive)"}, {"measurement": "GI50", "setting": "SF-268", "value": "> 10 µM (inactive)"}, {"measurement": "GI50", "setting": "SNB-75", "value": "> 10 µM (inactive)"}, {"measurement": "GI50", "setting": "CCRF-CEM", "value": "> 10 µM (inactive)"}, {"measurement": "GI50", "setting": "HT-29", "value": "> 10 µM (inactive)"}, {"measurement": "GI50", "setting": "CAKI-1", "value": "> 10 µM (inactive)"}, {"measurement": "GI50", "setting": "TK-10", "value": "> 10 µM (inactive)"}, {"measurement": "GI50", "setting": "U-251", "value": "> 10 µM (inactive)"}, {"measurement": "GI50", "setting": "MDA-MB-435", "value": "> 10 µM (inactive)"}, {"measurement": "GI50", "setting": "IGROV-1", "value": "> 10 µM (inactive)"}, {"measurement": "GI50", "setting": "SK-MEL-5", "value": "> 10 µM (inactive)"}, {"measurement": "GI50", "setting": "SF-539", "value": "> 10 µM (inactive)"}, {"measurement": "GI50", "setting": "SN12C", "value": "> 10 µM (inactive)"}, {"measurement": "GI50", "setting": "SR", "value": "> 10 µM (inactive)"}, {"measurement": "GI50", "setting": "SW-620", "value": "> 10 µM (inactive)"}, {"measurement": "GI50", "setting": "COLO 205", "value": "> 10 µM (inactive)"}, {"measurement": "GI50", "setting": "MCF7", "value": "> 10 µM (inactive)"}, {"measurement": "GI50", "setting": "NCI-H226", "value": "> 10 µM (inactive)"}, {"measurement": "GI50", "setting": "OVCAR-8", "value": "> 10 µM (inactive)"}, {"measurement": "GI50", "setting": "UACC-62", "value": "> 10 µM (inactive)"}, {"measurement": "GI50", "setting": "ACHN", "value": "> 10 µM (inactive)"}, {"measurement": "GI50", "setting": "SK-OV-3", "value": "> 10 µM (inactive)"}, {"measurement": "GI50", "setting": "M14", "value": "> 10 µM (inactive)"}, {"measurement": "GI50", "setting": "MDA-MB-231", "value": "> 10 µM (inactive)"}, {"measurement": "GI50", "setting": "OVCAR-4", "value": "> 10 µM (inactive)"}, {"measurement": "GI50", "setting": "MDA-N", "value": "> 10 µM (inactive)"}, {"measurement": "GI50", "setting": "UACC-257", "value": "> 10 µM (inactive)"}, {"measurement": "GI50", "setting": "HCC 2998", "value": "> 10 µM (inactive)"}, {"measurement": "GI50", "setting": "DU-145", "value": "> 10 µM (inactive)"}, {"measurement": "GI50", "setting": "BT-549", "value": "> 10 µM (inactive)"}, {"measurement": "GI50", "setting": "PC-3", "value": "> 10 µM (inactive)"}, {"measurement": "GI50", "setting": "Hs-578T", "value": "> 10 µM (inactive)"}, {"measurement": "GI50", "setting": "KM12", "value": "> 10 µM (inactive)"}, {"measurement": "GI50", "setting": "NCI-H522", "value": "> 10 µM (inactive)"}, {"measurement": "GI50", "setting": "SNB-19", "value": "> 10 µM (inactive)"}, {"measurement": "GI50", "setting": "NCI-H23", "value": "> 10 µM (inactive)"}, {"measurement": "GI50", "setting": "RPMI-8226", "value": "> 10 µM (inactive)"}, {"measurement": "GI50", "setting": "K562", "value": "> 10 µM (inactive)"}, {"measurement": "GI50", "setting": "HCT-15", "value": "> 10", "unit": "µM"}, {"measurement": "GI50", "setting": "EKVX", "value": "> 10 µM (inactive)"}, {"measurement": "GI50", "setting": "SK-MEL-2", "value": "> 10 µM (inactive)"}, {"measurement": "GI50", "setting": "A498", "value": "> 10 µM (inactive)"}, {"measurement": "GI50", "setting": "SF-295", "value": "> 10 µM (inactive)"}, {"measurement": "GI50", "setting": "Malme-3M", "value": "> 10 µM (inactive)"}, {"measurement": "GI50", "setting": "HOP-62", "value": "> 10 µM (inactive)"}, {"measurement": "GI50", "setting": "OVCAR-3", "value": "> 10 µM (inactive)"}, {"measurement": "GI50", "setting": "A549", "value": "> 10 µM (inactive)"}, {"measurement": "GI50", "setting": "SK-MEL-28", "value": "> 10 µM (inactive)"}, {"measurement": "GI50", "setting": "786-0", "value": "> 10 µM (inactive)"}, {"measurement": "GI50", "setting": "T47D", "value": "> 10 µM (inactive)"}, {"measurement": "GI50", "setting": "NCI/ADR-RES", "value": "> 10 µM (inactive)"}, {"measurement": "GI50", "setting": "OVCAR-5", "value": "> 10 µM (inactive)"}]}
